The test system of data set [1] is 60 cancer cell lines. The experiment in a line: NCI 60-cell one dose screen, whole panel. In kind it is cell-based, human. As to conditions: 10^−5M. On the procedure: NSC745885 was studied as a prototype for anti-proliferative activity against human cancer cell lines in NCI Drug Screen Program (Table 1, below). NSC745885 was evaluated in the full panel of human tumor cell lines derived from nine cancer cell types (leukemia, non-small cell lung cancer, colon cancer, CNS cancer, prostate cancer, melanoma, ovarian cancer, renal cancer and breast cancer). Each subpanel uses several cell lines and dose-response curves were drawn against the decadic logarithm (log 10) of the corresponding drug concentrations for each cell line by the subpanel group. They were also evaluated in the 60 cell line panel and anticancer assay was performed in accordance with the protocol of developmental therapeutics program (one dose mean graph). Results for each compound were reported as the proliferation percentage of the treated cells with that of the untreated control cells being 100. For each of these parameters the averaged values of mean graph midpoint (MG_MID) were calculated.

Data set [2] concerns COLO 205. As to the kind of experiment: NCI 60-cell panel dose-response. In kind it is cell-based. As to conditions: Homo sapiens; COLO 205 (Colon cancer).
The test system of data set [3] is HeLa cells. As to the kind of experiment: Autophagy: LC3B-II immunoblot. The settings on record: 12 hours. In kind it is cell-based, human. On the procedure: Cell lysates were prepared in lysis buffer (100 mM Tris-HCl pH 8.0, 150 mM NaCl, 0.1% SDS, and 1% Triton 100) at 4° C., separated by sodium dodecyl sulfate-polyacrylamide gel electrophoresis (SDS-PAGE), and then transferred onto a polyvinylidine difluoride membrane (Millipore, USA). Proteins were detected using antibodies against alpha actinin (ACTN), proliferating cell nuclear antigen (PCNA), p53, p21, cyclin B1, and cyclin D1 (Santa Cruz Biotechnology, USA), YH2A.X (EP854(2)Y, Epitomics, USA), cleaved caspase 3, cleaved poly(ADP-ribose) polymerase (PARP) and LC3B-II (Cell signaling, USA).
Altered intracellular localization of LC3B (LC3B-I) and increased electrophoretic mobility of LC3B (LC3B-II) are correlated with recruitment to autophagic membranes and can be used as molecular markers for autophagic activation.
In FIG. 5A, HeLa cells were treated with the indicated concentrations of DXR, NSC745885 for 12 hours, and then cell lysates were analyzed by immunoblot using antibodies directed against LC3. The results are representative of three independent experiments.

The test system of data set [4] is HeLa cells. The experiment in a line: Autophagosome formation, GFP-LC3 fluorescence microscopy. The settings on record: HeLa cells transfected with GFP-LC3; 2.5 μM NSC745885, 12 hours. Type of data set: cell-based, human. On the procedure: In FIG. 5B, HeLa cells were transfected with 0.25 μg of an expression vector for GFP-LC3 for 24 hours and then treated with 2.5 μM NSC745885 for 12 hours. […] Vehicle (DMSO) and spermidine (Spd) were used as a negative and positive control, respectively.
In FIGS. 5C and 5D, HeLa cells were incubated with 2.5 μM NSC745885 for 24 hours. After 48 hours, cells were subjected to SA-β-galactosidase staining (FIG. 5C) and approximately 100 stained cells were quantified (*P<0.05; ** P<0.01; *** P<0.005). NSC745885 induced senescence at a rate of 25% (P=0.0085 compared to DMSO). (FIG. 5D) LC3B-I fragments were observed when the cells were exposed to the drug for longer period of time (FIG. 5A, panel labeled as LE). […] We also treated Hela cells with the autophagy inducer spermidine (Spd) and vehicle (DMSO), which act as the positive and the negative control, respectively.

Data set [5] relates to p53-dependent reporter (pG13-LUC). As to the kind of experiment: p53-dependent reporter (pG13-LUC) luciferase assay. Type of data set: cell-based, human. On the procedure: HeLa and HeLa/shp53 cells were grown in DMEM supplemented with 10% charcoal/dextran-treated fetal bovine serum. Cells in a 24-well plate were transfected with jetPEI (PolyPlus-transfection, France) according to the manufacturer's protocol; total DNA was adjusted to 1.0 μg by the addition of empty vector DNA. Luciferase assays were performed using the Promega Luciferase Assay kit, and the measurement was expressed numerically as relative light units (RLU). Luciferase activities were presented as means and standard deviation of two transfected sets. […] Instead, the reproducibility of the observed effects on luciferase activity was determined in multiple independent transfection experiments.
HeLa cells infected with human papillomavirus and expressing the E6 oncoprotein, which maintains endogenous wild-type p53 at a very low concentration, are used as a model system for studying human cervical tumorigenesis. In order for us to confirm the effects of DXR and NSC745885 on endogenous p53, HeLa cells were transiently transfected with a p53-dependent reporter (pG13-LUC) (FIG. 7A) and a p21 promoter reporter (p21-LUC) (FIG. 7B), along with an expression vector for a well-known p53 activator (Zac1).

In data set [6] the test system is fibroblast 3T3. As to the kind of experiment: Cell toxicity in non-cancer cell. Type of data set: cell-based. From the text:
(§1) To investigate the cell proliferation inhibition effect of NSC745885 in cancer cells, we compared the cancer cell proliferation inhibition effect of the NSC745885 with well-know bladder anti-cancer agent “Emodin” and clinical cancer chemical therapy agent “Doxorubicin”. The experiment bladder cancer cell lines includes T24 (FIG. 9A, 9D) and MBT2 (FIG. 9 B, 9E). We also confirm the NSC745885 cell toxicity using the non-cancer cell fibroblast 3T3 (FIG. 9C) and normal epithelial cell SV_UC—1 (FIG. 9F).

Data set [7] concerns SV_UC—1. The experiment in a line: Cell toxicity in normal epithelial cell. Type of data set: cell-based.
From the text: as §1

Data set [8] relates to Stem Cell Factor (SCF). As to the kind of experiment: SCF protein expression in cells. In kind it is cell-based. On the procedure: To investigate whether NSC745885 down-regulates SCF in cancer cells, we treated bladder cancer cell (MBT2, T24) and normal epithelial cell (SV_HUC—1) with NSC745885 for 24 hours and then analyzed the SCF protein level.
We investigated NSC745885's effect on SCF expression in different cancer cells, including bladder cancer (MBT2, T24), breast cancer (MCF-7, MDA-MB-453), prostate cancer (PC3, LNCaP), kidney cancer (786-O), and kidney epithelial cell (293T). We treatment these different cancer cells with (+) or without (−) the NSC745885 (5 μM), and then analyzed SCF protein level.

In data set [9] the test system is SAS cells. As to the kind of experiment: SAS tumor xenograft in mouse. Type of data set: in vivo. As to conditions: 2 mg/kg/day, 10 days. On the procedure: Furthermore, we tested the effects of NSC745885 on tumor size in mouse. This experiment had two animal groups: one is administered after tumor xenograft transplantation with PBS (Control, FIG. 13, Panel A) and the other with NSC745885 (2 mg/kg/day, FIG. 13, Panel B). The mice were euthanized after 10 days and the tumor tissues were immediately isolated. […] (FIG. 13, Panel C).

The text below walks through data of patent US8772321B2, “Heteroannelated anthraquinone derivatives for inhibiting cancers” (National Defense Medical Center, priority 2008, dated 2014).

Molecules are shown by their SMILES.

What is called GI50 is the concentration at which growth is held to half of that of the control. Lower therefore signals greater sensitivity of the cells. Turning to `O=C1c2ccccc2C(=O)c2c1ccc1nsnc21` [NSC745885, anthra[2,1-c][1,2,5]thiadiazole-6,11-dione], the “proliferation percentage, Delta” value in data set [1] (delta of the one dose mean graph) is on record as 102.68%. The “proliferation percentage, Mean” value in [1] (mean over the cell lines) came out at 2.68%. The “proliferation percentage, Range” value in data set [1] (range over the cell lines) was 230.09%. Moreover, it took 13.4 µM to inhibit growth in [2] by half (GI50). Besides, the “LC3B-II fragment formation (autophagic activation)” value in [3] is “LC3B-II fragment formation”. The “autophagosome formation (LC3 aggregation, GFP-LC3)” value in data set [4] is on record as “autophagosome formation”. The “Zac1-induced p53-dependent reporter activity” value in [5] (HeLa cells co-transfected with Zac1 expression vector) is reported as “inhibited Zac1-induced activity”. Also, the pG13-LUC reporter activity result in data set [5] (HeLa cells transiently transfected, without Zac1) is listed as “enhanced pG13-LUC reporter activity in a concentration-dependent manner”. Further, the “cell toxicity in normal cell” value in [6] and in data set [7] was “no cell toxicity” each time. Moreover, in data set [8] (5 μM, MBT2, T24, MCF-7, MDA-MB-453, PC3, LNCaP, 786-O, 293T), the SCF protein level entry was “significantly decreased”. For the same compound, the SCF protein expression entry in [8] (MBT2, T24 and SV_HUC—1 cells, 24 hours, increasing concentrations) was “suppressed”. Further, the body weight result in data set [9] was “not significantly decreased”. Also, the tumor size result in [9] (versus PBS control) is “reduced”.
